Test results reported in BindingDB's records for patent WO2022093856 (AMGEN INC., 2022).

Molecular target: T1, GTPase KRas [1-169,G12C,C118A] (Homo sapiens, UniProt P01116, C118A/G12C)
T1 construct: 1-169
T1 sequence (P01116 1-169 G12C/C118A): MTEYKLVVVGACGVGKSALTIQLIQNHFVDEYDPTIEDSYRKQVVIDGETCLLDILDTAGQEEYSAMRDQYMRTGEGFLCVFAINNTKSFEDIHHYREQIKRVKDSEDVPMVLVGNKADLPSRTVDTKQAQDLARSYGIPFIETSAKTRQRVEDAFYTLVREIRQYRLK

C=CC(=O)N1CC2(CCN(c3nc4c(c(N[C@@H](CC(C)C)Cn5ccnn5)n3)CCC(C)(C)C4)C2)C1 [WO2022093856, Example 1-47]
IC50: 0.822 µM
